In patent US9428464B2, “Kynurenine-3-monooxygenase inhibitors, pharmaceutical compositions, and methods of use thereof” (CHDI Foundation, Inc., priority 2011, dated 2016):
Where “and” joins values, the source holds several entries; their conditions need not be identical. Equal entries are not always repeated.

These molecules were tested on KMO (assay: KMO activity assay: L-Kynurenine hydroxylation to 3-Hydroxy-Kynurenine, quantified by LC/MS). Conditions: compound at 10 uM; footnote: some portion of activity of amides may be due to contribution of acid precursor.
Assay type: biochemical
Description: A generalized procedure for monitoring L-Kynurenine (KYN) hydroxylation to form product 3-Hydroxy-Kynurenine (3OH-KYN) by LC/MS is described below. Product is quantified by multiple reaction monitoring using MS.
A method of monitoring L-Kynurenine (KYN) hydroxylation to form product 3-Hydroxy-Kynurenine (3OH-KYN) by LC/MS is described below. Product is quantified by multiple reaction monitoring.
• Compound: Stock concentrations: 10 mM in 100% DMSO • Enzyme: KMO enzyme prepared at Evotec via mitochondria isolation from CHO-GST HIS KMO cells • Substrate: L-Kynurenine (Sigma: Cat #K3750) • [stock concentration: 10 mM in 100 mM potassium phosphate buffer, pH 7.4]
A method of monitoring L-Kynurenine (KYN) hydroxylation to form 3-Hydroxy-Kynurenine (3OH-KYN) by LC/MS is described. Product is quantified by multiple reaction monitoring (MRM method).

| SMILES | % Inhibition at 10 uM [%] |
| --- | --- |
| Cl.O=C(Nc1ccc(N2CCNCC2)nc1)c1cc(-c2ccc(Cl)c(Cl)c2)ncn1 [6-(3,4-Dichloro-phenyl)-pyrimidine-4-carboxylic acid (6-piperazin-1-yl-pyridin-3-yl)-amide hydrochloride salt] | 87.82 |
| O=C(N[C@H]1c2ccccc2C[C@H]1O)c1cc(-c2ccc(Cl)c(Cl)c2)ncn1 [6-(3,4-Dichloro-phenyl)-pyrimidine-4-carboxylic acid ((1S,2R)-2-hydroxy-indan-1-yl)-amide] | 97.78 |
| C[C@@H](NC(=O)c1cc(-c2ccc(Cl)c(Cl)c2)ncn1)c1ccccc1 [6-(3,4-Dichloro-phenyl)-pyrimidine-4-carboxylic acid ((R)-1-phenyl-ethyl)-amide] | 101.25 |
| C[C@@H](NC(=O)c1cc(-c2ccc(Cl)c(Cl)c2)ncn1)c1cccnc1 [6-(3,4-Dichloro-phenyl)-pyrimidine-4-carboxylic acid ((R)-1-pyridin-3-yl-ethyl)-amide] | 90.86 |
| C[C@H](CO)NC(=O)c1cc(-c2ccc(Cl)c(Cl)c2)ncn1 [6-(3,4-Dichloro-phenyl)-pyrimidine-4-carboxylic acid ((R)-2-hydroxy-1-methyl-ethyl)-amide] | 97.775 |
| CC(NC(=O)c1cc(-c2ccc(Cl)c(Cl)c2)ncn1)[C@@H](C)O (stereo partly drawn) [6-(3,4-Dichloro-phenyl)-pyrimidine-4-carboxylic acid ((R)-2-hydroxy-1-methyl-propyl)-amide] | 66.43 |
| C[C@@H](O)CNC(=O)c1cc(-c2ccc(Cl)c(Cl)c2)ncn1 [6-(3,4-Dichloro-phenyl)-pyrimidine-4-carboxylic acid ((R)-2-hydroxy-propyl)-amide] | 100.71 |
| C[C@H](NC(=O)c1cc(-c2ccc(Cl)c(Cl)c2)ncn1)C(N)=O [6-(3,4-Dichloro-phenyl)-pyrimidine-4-carboxylic acid ((S)-1-carbamoyl-ethyl)-amide] | 47.73 |
| CC[C@H](NC(=O)c1cc(-c2ccc(Cl)c(Cl)c2)ncn1)C(N)=O [6-(3,4-Dichloro-phenyl)-pyrimidine-4-carboxylic acid ((S)-1-carbamoyl-propyl)-amide] | 87.6 |
| C[C@H](NC(=O)c1cc(-c2ccc(Cl)c(Cl)c2)ncn1)c1ccccc1 [6-(3,4-Dichloro-phenyl)-pyrimidine-4-carboxylic acid ((S)-1-phenyl-ethyl)-amide] | 102.29 |
| C[C@H](NC(=O)c1cc(-c2ccc(Cl)c(Cl)c2)ncn1)c1cccnc1 [6-(3,4-Dichloro-phenyl)-pyrimidine-4-carboxylic acid ((S)-1-pyridin-3-yl-ethyl)-amide] | 85.1 |
| C[C@H](NC(=O)c1cc(-c2ccc(Cl)c(Cl)c2)ncn1)c1ccncc1 [6-(3,4-Dichloro-phenyl)-pyrimidine-4-carboxylic acid ((S)-1-pyridin-4-yl-ethyl)-amide] | 91.79 |
| C[C@@H](CO)NC(=O)c1cc(-c2ccc(Cl)c(Cl)c2)ncn1 [6-(3,4-Dichloro-phenyl)-pyrimidine-4-carboxylic acid ((S)-2-hydroxy-1-methyl-ethyl)-amide] | 99.59 |
| C[C@H](O)CNC(=O)c1cc(-c2ccc(Cl)c(Cl)c2)ncn1 [6-(3,4-Dichloro-phenyl)-pyrimidine-4-carboxylic acid ((S)-2-hydroxy-propyl)-amide] | 86.83 |
| Cl.O=C(N[C@@H]1CCNC1)c1cc(-c2ccc(Cl)c(Cl)c2)ncn1 [6-(3,4-Dichloro-phenyl)-pyrimidine-4-carboxylic acid (R)-pyrrolidin-3-ylamide hydrochloride salt] | 95.94 |
| Cl.O=C(N[C@H]1CCNC1)c1cc(-c2ccc(Cl)c(Cl)c2)ncn1 [6-(3,4-Dichloro-phenyl)-pyrimidine-4-carboxylic acid (S)-pyrrolidin-3-ylamide hydrochloride salt] | 89.355 |
| O=C(N[C@@H]1CCOC1)c1cc(-c2ccc(Cl)c(Cl)c2)ncn1 [6-(3,4-Dichloro-phenyl)-pyrimidine-4-carboxylic acid (tetrahydro-furan-3R-yl)-amide] | 41.5 |
| O=C(N[C@H]1CCOC1)c1cc(-c2ccc(Cl)c(Cl)c2)ncn1 [6-(3,4-Dichloro-phenyl)-pyrimidine-4-carboxylic acid (tetrahydro-furan-3S-yl)-amide] | 53.41 |
| O=C(NC1CCOCC1)c1cc(-c2ccc(Cl)c(Cl)c2)ncn1 [6-(3,4-Dichloro-phenyl)-pyrimidine-4-carboxylic acid (tetrahydro-pyran-4-yl)-amide] | 55.35 |
| O=C(NCC1CCOCC1)c1cc(-c2ccc(Cl)c(Cl)c2)ncn1 [6-(3,4-Dichloro-phenyl)-pyrimidine-4-carboxylic acid (tetrahydro-pyran-4-ylmethyl)-amide] | 101.39 |
| O=C(Nc1nnco1)c1cc(-c2ccc(Cl)c(Cl)c2)ncn1 [6-(3,4-Dichloro-phenyl)-pyrimidine-4-carboxylic acid [1,3,4]oxadiazol-2-ylamide] | 101.93 |
| CC(NC(=O)c1cc(-c2ccc(Cl)c(Cl)c2)ncn1)c1ccc2c(c1)NC(=O)CO2 (centres unmarked) [6-(3,4-Dichloro-phenyl)-pyrimidine-4-carboxylic acid [1-(3-oxo-3,4-dihydro-2H-benzo[1,4]oxazin-6-yl)-ethyl]-amide] | 99.66 |
| O=C1CN(C(=O)CNC(=O)c2cc(-c3ccc(Cl)c(Cl)c3)ncn2)CCN1 [6-(3,4-Dichloro-phenyl)-pyrimidine-4-carboxylic acid [2-oxo-2-(3-oxo-piperazin-1-yl)-ethyl]-amide] | 62.23 |
| CC1CN(c2cccc(NC(=O)c3cc(-c4ccc(Cl)c(Cl)c4)ncn3)c2)CC(C)O1 (centres unmarked) [6-(3,4-Dichloro-phenyl)-pyrimidine-4-carboxylic acid [3-(2,6-dimethyl-morpholin-4-yl)-phenyl]-amide] | 57.56 |
| CN1CCN(c2cccc(NC(=O)c3cc(-c4ccc(Cl)c(Cl)c4)ncn3)c2)CC1.Cl [6-(3,4-Dichloro-phenyl)-pyrimidine-4-carboxylic acid [3-(4-methyl-piperazin-1-yl)-phenyl]-amide hydrochloride salt] | 85.89 |
| CN1CCN(c2cccc(NC(=O)c3cc(-c4ccc(Cl)c(Cl)c4)ncn3)c2)CC1 [6-(3,4-Dichloro-phenyl)-pyrimidine-4-carboxylic acid [3-(4-methyl-piperazin-1-yl)-phenyl]-amide] | 75.48 |
| CC1CN(c2ccc(NC(=O)c3cc(-c4ccc(Cl)c(Cl)c4)ncn3)cc2)CC(C)O1.Cl (centres unmarked) [6-(3,4-Dichloro-phenyl)-pyrimidine-4-carboxylic acid [4-(2,6-dimethyl-morpholin-4-yl)-phenyl]-amide hydrochloride salt] | 97.61 |
| Cl.O=C(Nc1ccc(OCCN2CCOCC2)cc1)c1cc(-c2ccc(Cl)c(Cl)c2)ncn1 [6-(3,4-Dichloro-phenyl)-pyrimidine-4-carboxylic acid [4-(2-morpholin-4-yl-ethoxy)-phenyl]-amide hydrochloride salt] | 90.48 |

Same assay, conditions: compound at 10 uM; footnote: some portion of activity of amides may be due to contribution of acid precursor; 10 µM

| SMILES | % Inhibition at 10 uM |
| --- | --- |
| CC(=O)N1CC[C@H](NC(=O)c2cc(-c3ccc(Cl)c(Cl)c3)ncn2)C1 [6-(3,4-Dichloro-phenyl)-pyrimidine-4-carboxylic acid ((S)-1-acetyl-pyrrolidin-3-yl)-amide] | 84.87% and 98.54% |
